The source of these data is PubChem BioAssay AID248 (DTP/NCI, 2004).

Each structure is given as a SMILES string. Toxic doses and inconclusive results are not listed.

The test concerns L1210 leukemia ip in BDF1 mice, survival T/C. Briefly: NCI In Vivo Anticancer Drug Screen. Data for tumor model L1210 Leukemia (intraperitoneal) in B6D2F1 (BDF1) mice. Conditions: endpoint: mean survival time, higher = longer survival. An outline of the steps:
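Transplanted-tumor mice were given test agent; controls received vehicle only. Survival readings from the two groups were divided (treated over control).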

The mark [1] stands for this setting: dose: 100.0 mg/kg/injection, schedule: Q04DX003 (ip), vehicle: Klucel (hydroxypropylcellulose) (HPC).
Where [2] appears, read: dose: 200.0 mg/kg/injection, schedule: Q04DX003 (ip), vehicle: Klucel (hydroxypropylcellulose) (HPC).
The mark [3] stands for this setting: dose: 400.0 mg/kg/injection, schedule: Q04DX003 (ip), vehicle: Klucel (hydroxypropylcellulose) (HPC).
Where [4] appears, read: dose: 100.0 mg/kg/injection, schedule: Q01DX009 (ip), vehicle: Klucel (hydroxypropylcellulose) (HPC).
Where [5] appears, read: dose: 400.0 mg/kg/injection, schedule: Q01DX009 (ip), vehicle: Klucel (hydroxypropylcellulose) (HPC).
The mark [6] stands for this setting: dose: 100.0 mg/kg/injection, schedule: Q04DX002 (ip), vehicle: Klucel (hydroxypropylcellulose) (HPC).
Setting [7] is: dose: 200.0 mg/kg/injection, schedule: Q04DX002 (ip), vehicle: Klucel (hydroxypropylcellulose) (HPC).

For `COc1cc(NS(C)(=O)=O)ccc1Nc1c2ccc([N+](=O)[O-])cc2nc2c(C)c(C)ccc12`, the T/C reads like this: (dose: 0.48 mg/kg/injection, schedule: Q01DX009 (ip), vehicle: saline) 113 % of control; (dose: 2.7 mg/kg/injection, schedule: Q01DX009 (ip), vehicle: saline) 151 % of control; (dose: 4.1 mg/kg/injection, schedule: Q01DX009 (ip), vehicle: saline) 169 % of control; (dose: 6.25 mg/kg/injection, schedule: Q01DX009 (ip), vehicle: water) 106 % of control; (dose: 12.5 mg/kg/injection, schedule: Q01DX009 (ip), vehicle: saline) 157 % of control; (dose: 12.5 mg/kg/injection, schedule: Q01DX009 (ip), vehicle: water) 116 % of control. Besides, the T/C is 114 % of control (dose: 22.0 mg/kg/injection, schedule: Q04DX003 (ip), vehicle: saline); 122 % of control (dose: 25.0 mg/kg/injection, schedule: Q01DX001 (ip), vehicle: water); 102 % of control (dose: 25.0 mg/kg/injection, schedule: Q01DX009 (ip), vehicle: saline); 124 % of control (dose: 25.0 mg/kg/injection, schedule: Q01DX009 (ip), vehicle: water); 106 % of control (dose: 25.0 mg/kg/injection, schedule: Q01DX009 (sc), vehicle: saline); 120 % of control (dose: 35.0 mg/kg/injection, schedule: Q04DX003 (ip), vehicle: saline). Besides, the T/C was 123 % of control (dose: 50.0 mg/kg/injection, schedule: Q01DX009 (sc), vehicle: saline); 115 % of control (dose: 100.0 mg/kg/injection, schedule: Q01DX009 (sc), vehicle: saline); 124 % of control (dose: 200.0 mg/kg/injection, schedule: Q01DX009 (sc), vehicle: saline); 150 % of control (dose: 400.0 mg/kg/injection, schedule: Q01DX009 (ip), vehicle: water).
In the case of `CCOc1nc(OCC)c2[nH]c(C(=O)O)c(Br)c2n1`, the T/C by setting is: (dose: 50.0 mg/kg/injection, schedule: Q01DX001 (ip), vehicle: saline) 107 % of control; (dose: 100.0 mg/kg/injection, schedule: Q01DX001 (ip), vehicle: saline) 100 % of control; (dose: 200.0 mg/kg/injection, schedule: Q01DX001 (ip), vehicle: saline) 105 % of control; (dose: 400.0 mg/kg/injection, schedule: Q01DX001 (ip), vehicle: saline) 107 % of control.
On to `C[n+]1cn(CCCl)c2ccccc21`, for which the T/C reads like this: (dose: 10.0 mg/kg/injection, schedule: Q01DX Z (ip), vehicle: saline) 93 % of control; (dose: 30.0 mg/kg/injection, schedule: Q01DX Z (ip), vehicle: saline) 95 % of control.
In the case of `Nc1ccc(CNC(=O)COc2ccc(Cl)cc2C(=O)O)cc1`, the T/C by setting is: under setting [1], 110 % of control; under setting [2], 94 % of control; under setting [3], 100 % of control.
For `CCN(CC)CCCNc1c2ccccc2nc2ccccc12`, the T/C (dose: 5.0 mg/kg/injection, schedule: Q01DX001 (ip), vehicle: saline) was 113 % of control; the T/C (dose: 10.0 mg/kg/injection, schedule: Q01DX001 (ip), vehicle: saline) is 104 % of control; the T/C (dose: 20.0 mg/kg/injection, schedule: Q01DX001 (ip), vehicle: saline) is 115 % of control; the T/C (dose: 40.0 mg/kg/injection, schedule: Q01DX001 (ip), vehicle: saline) was 87 % of control.
`CC(C)(C)c1ccc(OC(=O)Nc2cccc(C(F)(F)F)c2)cc1`: the T/C is 101 % of control (dose: 100.0 mg/kg/injection, schedule: Q01DX009 (ip), vehicle: gum acacia); 95 % of control (dose: 200.0 mg/kg/injection, schedule: Q01DX009 (ip), vehicle: gum acacia); 103 % of control (dose: 400.0 mg/kg/injection, schedule: Q01DX009 (ip), vehicle: gum acacia).
Consider `CC1=CC(=O)C(c2ccccc2)CC1` (stereo unspecified) (tested in a mixture with another compound), for which the T/C (dose: 50.0 mg/kg/injection, schedule: Q01DX009 (ip), vehicle: saline with Tween-80) was 96 % of control; the T/C (dose: 100.0 mg/kg/injection, schedule: Q01DX009 (ip), vehicle: saline with Tween-80) was 96 % of control; the T/C (dose: 200.0 mg/kg/injection, schedule: Q01DX009 (ip), vehicle: saline with Tween-80) was 96 % of control.
On to `Cc1cc(C)c(-c2c(C)cc(C)cc2CBr)c(CBr)c1`, for which the T/C was 108 % of control under setting [4]; 99 % of control (dose: 200.0 mg/kg/injection, schedule: Q01DX009 (ip), vehicle: Klucel (hydroxypropylcellulose) (HPC)); 99 % of control under setting [5].
Regarding `COc1ccc(S(=O)Nc2ccccc2)cc1` (stereo unspecified), the T/C is, setting by setting: (dose: 25.6 mg/kg/injection, schedule: Q04DX002 (ip), vehicle: saline with Tween-80) 108 % of control; (dose: 64.0 mg/kg/injection, schedule: Q04DX002 (ip), vehicle: saline with Tween-80) 115 % of control; (dose: 160.0 mg/kg/injection, schedule: Q04DX002 (ip), vehicle: saline with Tween-80) 101 % of control; (dose: 400.0 mg/kg/injection, schedule: Q04DX002 (ip), vehicle: saline with Tween-80) 112 % of control; (dose: 400.0 mg/kg/injection, schedule: Q04DX003 (ip), vehicle: saline with Tween-80) 95 % of control.
Consider `CCc1cccc(CC)c1NC(=O)CCl`, for which the T/C was 111 % of control under setting [6]; 108 % of control under setting [1]; 104 % of control under setting [7]; 90 % of control (dose: 400.0 mg/kg/injection, schedule: Q04DX002 (ip), vehicle: Klucel (hydroxypropylcellulose) (HPC)); 95 % of control under setting [3].
Regarding `CCCCCCCCCCCCCCN=C(N)N`, the T/C is 105 % of control (dose: 50.0 mg/kg/injection, schedule: Q01DX001 (ip), vehicle: carboxymethylcellulose (CMC)); 97 % of control (dose: 100.0 mg/kg/injection, schedule: Q01DX001 (ip), vehicle: carboxymethylcellulose (CMC)); 97 % of control (dose: 200.0 mg/kg/injection, schedule: Q01DX001 (ip), vehicle: carboxymethylcellulose (CMC)); 94 % of control (dose: 400.0 mg/kg/injection, schedule: Q01DX001 (ip), vehicle: carboxymethylcellulose (CMC)).
`Nc1nc(Nc2ccccc2)nc(C(=O)O)n1`: the T/C was 92 % of control (dose: 100.0 mg/kg/injection, schedule: Q01DX009 (ip), vehicle: saline); 110 % of control (dose: 100.0 mg/kg/injection, schedule: Q04DX003 (ip), vehicle: saline); 106 % of control (dose: 200.0 mg/kg/injection, schedule: Q01DX009 (ip), vehicle: saline); 101 % of control (dose: 200.0 mg/kg/injection, schedule: Q04DX003 (ip), vehicle: saline); 115 % of control (dose: 400.0 mg/kg/injection, schedule: Q01DX009 (ip), vehicle: saline); 106 % of control (dose: 400.0 mg/kg/injection, schedule: Q04DX003 (ip), vehicle: saline).
Turning to `O=C(Nc1ccccc1)Oc1c(Cl)c(Cl)c(Cl)c(Cl)c1Cl`, the T/C is 98 % of control under setting [6] and 104 % of control under setting [7].
On to `O=C1OCCN1C(=O)c1ccc(Cl)c(Cl)c1`, for which the T/C is 97 % of control (dose: 25.0 mg/kg/injection, schedule: Q01DX007 (ip), vehicle: Klucel (hydroxypropylcellulose) (HPC)); 95 % of control (dose: 50.0 mg/kg/injection, schedule: Q01DX007 (ip), vehicle: Klucel (hydroxypropylcellulose) (HPC)); 100 % of control (dose: 100.0 mg/kg/injection, schedule: Q01DX001 (ip), vehicle: Klucel (hydroxypropylcellulose) (HPC)); 100 % of control (dose: 100.0 mg/kg/injection, schedule: Q01DX007 (ip), vehicle: Klucel (hydroxypropylcellulose) (HPC)); 94 % of control under setting [4]; 95 % of control under setting [1]. The T/C is, setting by setting: (dose: 200.0 mg/kg/injection, schedule: Q01DX001 (ip), vehicle: Klucel (hydroxypropylcellulose) (HPC)) 94 % of control; under setting [2], 100 % of control; (dose: 400.0 mg/kg/injection, schedule: Q01DX001 (ip), vehicle: Klucel (hydroxypropylcellulose) (HPC)) 96 % of control; under setting [5], 87 % of control; under setting [3], 100 % of control.
